In the NIST ThermoML archive (doi:10.1021/je700644s):
± gives the expanded uncertainty stated by the source.

Key:
[1] = Crystal; visual observation
[2] = molar heat capacity at constant pressure; conditions: 101.33 kPa, Crystal

N[C@@H](Cc1ccc(O)c(O)c1)C(=O)O [L-3,4-dihydroxyphenylalanine]
Conditions | Normal melting temperature [°C]
[1] | 277.00 ± 2

[2]
Conditions | molar heat capacity at constant pressure [J/K/mol]
78.47 K | 71.34 ± 0.73
79.83 K | 72.35 ± 0.74
81.49 K | 73.75 ± 0.75
83 K | 75.18 ± 0.76
84.82 K | 76.68 ± 0.77
86.63 K | 78.19 ± 0.79
88.44 K | 79.6 ± 0.8
89.94 K | 80.73 ± 0.81
91.35 K | 82.27 ± 1.1
93.06 K | 83.62 ± 1.1
94.81 K | 84.79 ± 1.1
97.14 K | 86.2 ± 1.1
98.89 K | 87.89 ± 1.1
100.72 K | 89.28 ± 1.2
102.64 K | 90.78 ± 1.2
104.71 K | 92.24 ± 1.2
106.74 K | 93.97 ± 1.2
108.74 K | 95.89 ± 1.2
110.71 K | 97.8 ± 1.2
112.66 K | 99.36 ± 1.2
114.58 K | 101.07 ± 1.2
116.47 K | 103 ± 1.2
118.5 K | 104.72 ± 1.2
120.65 K | 106.43 ± 1.2
122.77 K | 108.44 ± 1.2
124.86 K | 110.39 ± 1.2
126.96 K | 112.16 ± 1.2
129.01 K | 113.95 ± 1.3
131.02 K | 115.5 ± 1.3
133.03 K | 117.12 ± 1.3
135.03 K | 118.6 ± 1.3
136.99 K | 120.14 ± 1.3
138.96 K | 121.84 ± 1.3
140.87 K | 123.73 ± 1.3
142.78 K | 125.45 ± 1.3
144.7 K | 127.02 ± 1.3
146.71 K | 128.82 ± 1.3
148.67 K | 130.53 ± 1.3
150.67 K | 132.25 ± 1.3
152.73 K | 133.85 ± 1.3
154.83 K | 135.87 ± 1.3
156.88 K | 137.96 ± 1.4
158.94 K | 139.53 ± 1.4
160.94 K | 141.56 ± 1.4
162.95 K | 143.5 ± 1.4
164.96 K | 144.99 ± 1.4
166.92 K | 146.4 ± 1.4
168.93 K | 148.17 ± 1.4
170.89 K | 150.21 ± 1.4
172.8 K | 151.86 ± 1.4
174.76 K | 153.4 ± 1.4
176.68 K | 155.02 ± 1.4
178.59 K | 156.36 ± 1.4
180.49 K | 157.89 ± 1.4
182.37 K | 159.54 ± 1.4
184.4 K | 161.1 ± 1.4
186.39 K | 162.67 ± 1.4
188.35 K | 164.31 ± 1.5
190.45 K | 165.92 ± 1.5
192.51 K | 167.41 ± 1.5
194.57 K | 169.47 ± 1.5
196.6 K | 171.19 ± 1.5
198.74 K | 173.02 ± 1.5
200.73 K | 174.55 ± 1.5
202.72 K | 176.35 ± 1.5
204.75 K | 178.18 ± 1.5
206.74 K | 179.9 ± 1.5
208.73 K | 181.7 ± 1.5
210.72 K | 183.49 ± 1.5
212.57 K | 185.1 ± 1.5
214.57 K | 186.74 ± 1.6
216.49 K | 188.38 ± 1.6
218.41 K | 190.07 ± 1.6
220.37 K | 191.82 ± 1.6
222.25 K | 193.7 ± 1.6
224.06 K | 195.34 ± 1.6
226.73 K | 197.52 ± 1.6
229.58 K | 199.77 ± 1.6
232.56 K | 202.63 ± 1.6
235.59 K | 205.29 ± 1.6
238.77 K | 207.95 ± 1.6
241.76 K | 210.58 ± 1.6
244.74 K | 212.99 ± 1.6
247.73 K | 215.37 ± 1.7
250.77 K | 218.1 ± 1.7
253.75 K | 220.62 ± 1.7
256.74 K | 223 ± 1.7
259.76 K | 225.81 ± 1.7
262.77 K | 228.18 ± 1.7
265.75 K | 230.91 ± 1.7
268.6 K | 233.5 ± 1.7
271.68 K | 236.23 ± 1.8
274.76 K | 239.03 ± 1.8
277.82 K | 242.01 ± 1.8
280.88 K | 244.64 ± 1.8
283.92 K | 247.23 ± 1.8
286.95 K | 249.5 ± 1.8
289.94 K | 252.13 ± 1.8
292.92 K | 255.42 ± 1.8
295.76 K | 258.06 ± 1.8
298.79 K | 261 ± 1.8
301.77 K | 263.53 ± 1.9
304.66 K | 266.35 ± 1.9
307.79 K | 269.29 ± 1.9
310.97 K | 272.35 ± 1.9
313.95 K | 275.23 ± 1.9
317.08 K | 278.06 ± 1.9
320.26 K | 281.06 ± 1.9
323.2 K | 284.12 ± 1.9
325.79 K | 286.4 ± 1.9
328.38 K | 288.56 ± 1.9
331.07 K | 291.45 ± 2
333.76 K | 293.85 ± 2
336.37 K | 296.31 ± 2
338.98 K | 299.04 ± 2
341.74 K | 301.82 ± 2
344.65 K | 304.77 ± 2
347.41 K | 307.5 ± 2
350.17 K | 309.96 ± 2
352.94 K | 312.58 ± 2
355.85 K | 315.2 ± 2.1
358.46 K | 317.71 ± 2.1
361.22 K | 320.33 ± 2.1
363.98 K | 323.17 ± 2.1
366.59 K | 325.79 ± 2.1
369.35 K | 328.08 ± 2.1
372.11 K | 330.75 ± 2.1
374.87 K | 333.1 ± 2.1
377.49 K | 335.94 ± 2.1
380.09 K | 338.83 ± 2.2
382.85 K | 341.72 ± 2.2
385.61 K | 344.62 ± 2.2
388.83 K | 347.29 ± 2.2
391.44 K | 350.03 ± 2.2
394.35 K | 352.91 ± 2.2
396.81 K | 355.28 ± 2.2
399.26 K | 357.83 ± 2.2
